Results on two compounds are retold here after patent US20060270634A1, “Acetal phosphate-derived LPA mimics, PPARgamma activators, and autotaxin inhibitors” (priority 2005, published 2006).

Read-outs that look alike come from different tables or passages of the source.

For test [1], the target named is T1, LPA1 (Homo sapiens, UniProt Q92633). As to the kind of experiment: Ca2+ transients in RH7777 cells expressing LPA1 (agonist / inhibition of LPA response).
Procedure: (§2) Synthesized compounds were tested for induction and inhibition of LPA-induced calcium transients in rat hepatoma (RH7777) cell lines that stably express individual LPA1, LPA2, and LPA3 receptors as described in the literature using a FlexStation II automated fluorimeter (Molecular Devices, Sunnyvale, Calif.).
Test [2] concerns PC3 cells. As to the kind of experiment: Calcium mobilization response in PC3 cells. The settings on record: Homo sapiens, read-out: PC3 cells IC50. The class given is cell-based.
Test [3] has as its target lysophospholipase D (autotaxin, ATX) (Homo sapiens, UniProt Q13822). Kind of test: Inhibition of lysophospholipase D autotaxin. The format is biochemical. As to conditions: Table 3. How it is done:
(§1) The biological effects of all synthesized compounds were testing using three high-throughput assays. First, intracellular calcium transients in rat hepatoma (RH777, an LPA receptor null cell) cell lines individually expressing either LPA1, LPA2, and LPA3 receptors were analyzed to evaluate compounds as agonists or antagonists. […] The PPRE-Acox-Rluc construct contains a renilla luciferase coding region, an acyl-CoA oxidase coding region, and a PPAR response element coding region. Third, inhibition of the lysophospholipase D autotoxin was determined using a previously described procedure.
LPA is liberated as the product of lysophosphatidylcholine hyrolysis by the lysophospholipase D, autotaxin (ATX). The inventors screened Darmstoff analogs for ATX inhibition. As indicated by the data, all tested analogs are capable of ATX inhibition independently of their ligand properties at LPA GPCR and PPARγ.

The target in test [4] is T2, PPARγ (Homo sapiens, UniProt P37231).
T2 construct: expressed in transfected cells; host or cells: CV1 cells (African green monkey kidney)
T2 sequence (P37231 1-505): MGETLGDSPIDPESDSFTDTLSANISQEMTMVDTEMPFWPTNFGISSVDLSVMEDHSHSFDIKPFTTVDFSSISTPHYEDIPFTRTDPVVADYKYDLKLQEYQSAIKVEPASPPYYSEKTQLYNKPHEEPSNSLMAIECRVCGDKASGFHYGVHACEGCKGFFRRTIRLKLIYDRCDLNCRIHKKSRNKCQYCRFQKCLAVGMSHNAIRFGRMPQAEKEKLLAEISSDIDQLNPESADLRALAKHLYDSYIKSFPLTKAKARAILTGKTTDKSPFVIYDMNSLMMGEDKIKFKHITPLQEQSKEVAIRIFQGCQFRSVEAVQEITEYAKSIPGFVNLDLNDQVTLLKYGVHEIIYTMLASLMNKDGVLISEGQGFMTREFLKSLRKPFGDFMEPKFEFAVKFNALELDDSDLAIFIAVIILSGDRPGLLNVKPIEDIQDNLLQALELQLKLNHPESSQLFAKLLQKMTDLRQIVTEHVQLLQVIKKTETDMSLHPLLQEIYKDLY
Kind of test: PPARγ activation, PPRE-Acox-Rluc reporter gene assay in CV1 cells. The class given is cell-based. As to conditions: Table 3. How it is done:
as §1
PPARγ is a lipid-activated transcription factor that belongs to the nuclear hormone superfamily. The inventors examined the activity of all synthesized Darmstoff analogs as PPARγ activators in vitro in CV1 cells using a PPRE-Acox-Rluc reporter gene assay. Rosiglitazone, a known PPARγ agonist, was used as a positive control for comparison.
RH7777 cells, which lack LPA GPCR, were stably transfected with individual LPA1, LPA2 and LPA3 receptors and used for the in vitro screening.
Unlike the enantiospecific responses compounds at LPA GPCR by APA analogs, there was no stereoselectivity observed in PPARγ activation by these analogs.

Test [5] has as its target T3, LPA3 (Homo sapiens, UniProt Q9UBY5).
T3 sequence (Q9UBY5 1-353): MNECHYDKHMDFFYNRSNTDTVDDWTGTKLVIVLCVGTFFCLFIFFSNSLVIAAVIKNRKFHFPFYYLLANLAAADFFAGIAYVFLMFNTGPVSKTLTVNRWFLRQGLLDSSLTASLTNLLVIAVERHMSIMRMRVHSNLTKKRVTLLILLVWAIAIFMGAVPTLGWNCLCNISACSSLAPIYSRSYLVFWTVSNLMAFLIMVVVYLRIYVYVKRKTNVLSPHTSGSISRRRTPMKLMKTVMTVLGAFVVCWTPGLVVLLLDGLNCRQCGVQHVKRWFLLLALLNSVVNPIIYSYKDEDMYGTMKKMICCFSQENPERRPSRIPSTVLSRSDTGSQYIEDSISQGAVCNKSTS
Kind of test: Ca2+ transients in RH7777 cells expressing LPA3 (agonist / inhibition of LPA response). The settings on record: for IC50: read-out: LPA3 IC50.
Procedure: as §2

In test [6] the target is LPA2 (Homo sapiens, UniProt Q9HBW0). Kind of test: Ca2+ transients in RH7777 cells expressing LPA2 (agonist / inhibition of LPA response).
Chain of LPA2 (Q9HBW0 whole entry, species assumed): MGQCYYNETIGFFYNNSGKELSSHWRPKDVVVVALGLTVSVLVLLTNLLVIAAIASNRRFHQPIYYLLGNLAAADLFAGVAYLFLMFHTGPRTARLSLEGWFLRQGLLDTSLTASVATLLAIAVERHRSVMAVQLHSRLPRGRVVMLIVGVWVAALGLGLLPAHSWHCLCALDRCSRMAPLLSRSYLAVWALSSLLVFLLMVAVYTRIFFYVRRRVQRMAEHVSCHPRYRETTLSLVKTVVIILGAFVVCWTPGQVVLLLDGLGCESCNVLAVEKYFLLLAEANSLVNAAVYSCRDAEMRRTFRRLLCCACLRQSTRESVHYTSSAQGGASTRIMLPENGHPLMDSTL
Procedure: as §2
The target of test [7] is T1, LPA1. Set-up: expressed in transfected cells; host or cells: RH7777 rat hepatoma cells. As to conditions: cited from earlier work.
The target in test [8] is T3, LPA3. Set-up: expressed in transfected cells; host or cells: RH7777 rat hepatoma cells. The settings on record: cited from earlier work.

T1 sequence (Q92633 whole entry, species assumed): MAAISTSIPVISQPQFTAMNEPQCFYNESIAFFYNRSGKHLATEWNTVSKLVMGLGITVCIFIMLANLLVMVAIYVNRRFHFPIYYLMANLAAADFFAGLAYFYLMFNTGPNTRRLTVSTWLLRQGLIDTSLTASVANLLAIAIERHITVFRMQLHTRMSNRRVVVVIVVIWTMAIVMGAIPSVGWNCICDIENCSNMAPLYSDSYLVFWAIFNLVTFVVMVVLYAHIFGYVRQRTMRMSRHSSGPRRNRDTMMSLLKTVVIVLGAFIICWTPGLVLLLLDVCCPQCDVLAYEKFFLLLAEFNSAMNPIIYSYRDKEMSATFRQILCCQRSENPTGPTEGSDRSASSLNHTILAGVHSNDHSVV

For the compound `CCCCCCCCCCCCC1OCC(COP(=O)(O)O)O1` (stereo not shown) [Analog 12], the Ki in test [1] was found to be 652 nM; in test [5] it was 681 nM. Also, the “LPA1 agonist/antagonist activity in words” value in test [1] is on record as “pantagonist”. Also, the IC50 in test [1] (LPA1 IC50, 200 nM LPA) was found to be 1110 nM; in test [1] (LPA1 IC50, 300 nM LPA), 2150 nM; in test [1] (LPA1 IC50, Table 3), 1110 nM; in test [1] (RH-LPA1 cells IC50, inhibition of 200 nM LPA response) it was 1110 nM; in test [1] (RH-LPA1 cells IC50, inhibition of 300 nM LPA response), 2150 nM; in test [2] (PC-3, inhibition of 100 nM LPA response), 1860 nM. Also, the IC50 came to 2110 nM in test [2] (PC-3, inhibition of 300 nM LPA response); 232 nM in test [3]; 2870 nM in test [5] (200 nM LPA); 2870 nM in test [5] (Table 3); 397 nM in test [6] (RH-LPA2 cells IC50, inhibition of 200 nM LPA response); 657 nM in test [6] (RH-LPA2 cells IC50, inhibition of 300 nM LPA response). In addition, the EC50 was over 30000 nM in test [1] (read-out: LPA1 EC50, Table 3); over 30000 nM in test [5] (read-out: LPA3 EC50, Table 3); 1180 nM in test [6] (LPA2 EC50, *transient); over 30000 nM in test [6] (LPA2 EC50, Table 3). Moreover, in test [3], the “ATX (% inhib.)” value came out at 26%. Further, the PPARγ result in test [4] is given as “Agonist”. Also, the “LPA3 agonist/antagonist activity in words” value in test [5] was “pantagonist”. The “LPA2 agonist/antagonist activity in words” value in test [6] was “pantagonist”.

As to “dioctanoyl glycerol pyrophosphate [DGPP 8:0]”, the “LPA1 activity in words, previously reported” value in test [7] is recorded as “antagonists”. Besides, the “LPA3 activity in words, previously reported” value in test [8] is “antagonists”.
